In the supplement of paper PMC10307832:

Legend:
Test in all cases: relative viability (nuclei count vs DMSO), 5 days (fraction); higher = more cells survive
[1] = compound: CC1=CC(=C(N1C2=CC=C(C=C2)Cl)C)C(=O)CN3CCCCC3 [IU1-47]
In short: (§1)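 Vehicle-anchored 1536-well plates of lung cancer cell lines, held overnight at 37 °C, were pinned with five library-drug doses (not always all listed) spaced by √10. No medium change followed over the next 5 days, after which the cells were fixed, permeabilised and Hoechst-stained together and imaged at 4×. Nuclei were counted with MetaXpress, and viability is treated-well nuclei over vehicle-well nuclei, taken as a median across plates. Plates passed with control CV below 25% and at least one doubling.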

[2] = compound: Cc1nc(C(=O)NCC(=O)O)c(O)c2ccc(Oc3ccccc3)cc12 [FG-4592]
In short: as §1

[3] = compound: Cc1nc(C(=O)NCC(=O)O)c(O)c2ccc(Oc3ccccc3)cc12 [FG-4592] + Nc1nc2[nH]cc(CCc3ccc(C(=O)N[C@@H](CCC(=O)O)C(=O)O)cc3)c2c(=O)[nH]1 [Pemetrexed] (partner 0.2 µM)
In short: (§2)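 One day after seeding in 1536-well plates, lung cancer cell lines were dosed by pin tool. Dosing was either single-drug or a fixed anchor-drug dose plus five library-drug doses (not always all listed) in √10 steps. After 5 days, nuclei were stained in one fix-and-stain step and counted on 4× images, and relative viability is the nuclei count of treated wells over that of vehicle wells, given as the median of duplicate plates.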

[4] = compound: CC1=CC(=C(N1C2=CC=C(C=C2)Cl)C)C(=O)CN3CCCCC3 [IU1-47] + Cc1nc(NC(=O)N2CCC[C@H]2C(N)=O)sc1-c1ccnc(C(C)(C)C(F)(F)F)c1 [Alpelisib] (partner 2 µM)
In short: as §2

Cell Line | relative viability ([1]; 0.08 µM) | relative viability ([1]; 0.253 µM) | relative viability ([1]; 0.8 µM) | relative viability ([1]; 2.53 µM) | relative viability ([1]; 8 µM) | relative viability ([2]; 0.08 µM) | relative viability ([2]; 0.253 µM) | relative viability ([2]; 0.8 µM) | relative viability ([2]; 2.53 µM) | relative viability ([2]; 8 µM) | relative viability ([3]; first compound 0.08 µM) | relative viability ([3]; first compound 0.253 µM) | relative viability ([3]; first compound 0.8 µM) | relative viability ([3]; first compound 2.53 µM) | relative viability ([3]; first compound 8 µM) | relative viability ([4]; first compound 0.08 µM) | relative viability ([4]; first compound 0.253 µM) | relative viability ([4]; first compound 0.8 µM) | relative viability ([4]; first compound 2.53 µM) | relative viability ([4]; first compound 8 µM)
LCLC-103H | 1.03 | 1.1 | 0.871 | 0.976 | 0.933 | 0.955 | 0.971 | 0.807 | 0.865 | 0.938 | 0.435 | 0.456 | 0.51 | 0.478 | 0.457 | 0.854 | 0.989 | 0.983 | 0.914 | 1.05
LK-2 | 1.23 | 1.05 | 0.988 | 0.905 | 0.934 | 0.78 | 0.918 | 0.685 | 0.883 | 0.778 | 0.26 | 0.277 |  | 0.239 | 0.268 | 1.13 | 1.23 | 1.63 | 0.997 | 0.628
LOU-NH91 | 1.09 | 1.04 | 0.964 | 1.04 | 0.952 | 0.942 | 0.869 | 0.905 | 0.92 | 0.96 | 0.465 | 0.336 | 0.468 | 0.405 | 0.407 | 0.761 | 0.75 | 0.71 | 0.692 | 0.668
LU99A | 0.977 | 0.898 | 1.1 | 0.953 | 0.972 | 0.91 | 0.862 | 0.748 | 0.972 | 0.961 | 0.184 | 0.199 |  | 0.182 | 0.199 | 0.498 | 0.59 | 0.488 | 0.627 | 0.663
LXF-289 | 1.08 | 1.06 | 1.08 | 0.982 | 0.958 | 1.04 | 0.941 | 1.06 | 0.981 | 1.09 | 0.853 | 0.906 | 1.02 | 0.883 | 0.948 | 1.06 | 1.09 | 1.12 | 1.06 | 1.05
NCI-H23 | 0.93 | 0.986 | 1.15 | 0.908 | 0.857 | 0.965 | 0.833 | 0.71 | 0.782 | 0.829 | 0.567 | 0.562 | 0.644 | 0.534 | 0.793 | 0.703 | 0.881 | 0.723 | 0.777 | 0.824
NCI-H322M | 0.972 | 1.02 | 0.919 | 0.922 | 0.925 | 0.812 | 0.907 | 0.844 | 0.897 | 0.89 |  | 0.614 | 0.613 | 0.546 | 0.63 | 0.802 | 0.82 | 0.805 | 0.755 | 0.831
NCI-H358 | 1 | 0.912 | 0.981 | 0.89 | 0.848 | 1.02 | 0.835 | 1.16 | 0.896 | 0.989 | 0.169 | 0.165 | 0.164 | 0.176 | 0.179 | 0.917 | 0.877 | 0.91 |  | 0.682
NCI-H441 | 1.24 | 1.16 | 1.07 | 1.01 | 1.07 | 1.05 | 0.928 | 0.98 | 0.756 | 0.787 | 0.267 | 0.343 | 0.272 | 0.296 | 0.248 | 0.672 | 0.82 | 0.616 | 0.92 | 0.779
NCI-H460 | 1.04 | 0.987 | 1.08 | 0.955 | 1.01 | 0.965 | 0.947 | 1.03 | 1 | 1.02 | 0.0673 | 0.0639 | 0.058 | 0.0799 | 0.0618 | 0.564 | 0.575 | 0.532 | 0.587 | 0.488
NCI-H520 | 0.989 | 0.973 | 0.981 | 0.879 | 0.849 | 0.873 | 0.897 | 0.827 | 0.943 | 0.761 | 0.62 | 0.766 | 0.774 | 0.8 | 0.698 | 0.947 | 0.948 | 1.03 | 0.907 | 0.726
NCI-H596 | 1.19 | 0.775 | 1.14 | 1.03 | 0.801 | 0.794 | 0.955 |  | 1.03 | 0.651 | 0.455 | 0.521 |  | 0.538 | 0.457 | 0.638 | 0.44 | 0.0053 | 0.429 | 0.49
NCI-H647 | 1.07 | 1.05 | 0.843 | 0.985 | 0.923 | 0.916 | 0.94 | 0.837 | 0.933 | 0.727 | 0.165 | 0.14 | 0.211 | 0.161 | 0.15 | 1.18 | 1.21 | 1.19 | 1.07 | 0.383
NCI-H650 | 1.15 | 1.08 | 0.978 | 0.836 | 0.876 | 0.836 | 0.964 | 0.737 | 0.912 | 0.891 | 0.978 | 0.871 | 0.848 | 0.812 | 0.726 | 1.28 | 1.14 | 1.2 | 1.09 | 1.01
NCI-H661 | 1.09 | 1.07 | 1.12 | 0.929 | 1.07 | 0.926 | 0.942 | 1.11 | 0.903 | 0.972 | 0.904 | 0.903 | 0.944 | 0.894 | 1.02 | 0.909 | 0.603 | 0.581 | 0.593 | 0.404
NCI-H838 | 1.01 | 1.05 | 1.04 | 1.01 | 0.955 | 0.962 | 0.937 | 0.853 | 0.946 | 0.923 | 0.257 | 0.279 | 0.227 | 0.244 | 0.253 | 1.04 | 1.03 | 1.05 | 1.08 | 0.859
